Assays:
[1] = system: Bacillus megaterium; experiment: Antibiotic sensitivity testing in petri dishes (MIC method); format: cell-based; conditions: FIG. 1; for sensitivity of Bacillus megaterium to antimicrobial agent / control of growth in vitro: 1*10^7 bacteria per culture, 37° C., 24 h
Procedure: The bacterial culture medium (HuanKai Microbial, Guangzhou, China) containing peptone 5 g, beef extract 3 g, NaCl 5 g, agar 15 g, and MnSO4 5 mg in 1 L ddH2O (pH=7.2) was prepared in conical flask (Drtech, Guangzhou, China) and was sterilized in the autoclave (HIRAYAMA, HEV-50, Japan) at 121° C. for 30 min. Antibiotics (ampicillin, vancomycin, neomycin, metronidazole, and tetracycline, purchased from Sigma, USA) at various concentrations were added into cooled medium. Bacillus megaterium (total 1*10^7 per culture) was cultured in the incubator (HettCube 200, Germany) at 37° C. for 24 h.
To test whether antibiotics can control the growth of Bacillus megaterium in vitro and in vivo, an antibiotic sensitivity screening test in petri dishes was carried out. The sensitivity of Bacillus megaterium to several major antimicrobial agents including Ampicillin, vancomycin, neomycin, metronidazole, and tetracycline were examined using the minimum inhibitory concentration (MIC) method.

[2] = system: Bacillus megaterium; format: in vivo, monkey
Procedure: The inventors collected both AH and vitreous humor (VH) specimens from AMD patients and were able to detect B. megaterium DNA in both uncultured and cultured samples. The inventors further examined whether subretinal inoculation of AH and VH cultures which had B. megaterium, as well as the cultured single species of B. megaterium led to AMD like pathology in macaque. Briefly, about 20 CFU of bacteria (in 20 μl PBS) from AH, VH, and B. megaterium cultures were injected subretinally and PBS was used as a control. The fundus examination of macaque eye was performed before (Day 0) and after bacterial inoculation on Day 1, Day 3, Day 35 as well as Day 47. The PBS injection left only visible scar on the retina, while all bacterial inoculations led to drusenoid lesions on retinal tissues. Drusen-like nodules were also visible under the RPE layer. Fluorescence in situ hybridization results also located B. megaterium in drusenoid but not in the normal tissues post inoculation. An elevation in the expression of C5A, CFH, CASPASE1, and NLRP3 proteins was also detected in the B. megaterium infected drusenoid lesion and para-lesion tissues as compared to the uninfected normal retina in macaque.
Next, Bacillus megaterium subretinal inoculation model was used to test whether antibiotics might be able to change the bacteria-induced drusenoid pathology in monkey retinal tissues.

Compound	fold less effective in controlling the growth of Bacillus megaterium ([1]; compared with neomycin)	sensitivity of Bacillus megaterium to antimicrobial agent / control of growth in vitro [1]	size of drusenoid lesion in retinal tissue ([2]; intravitreous 0.5 mg, one injection on Day 2 post bacterial inoculation, monkey, FIG. 2)	ocular complications after intraocular administration ([2]; intraocular administration in monkey (data not shown))
Cc1ncc([N+](=O)[O-])n1CCO [metronidazole]	10000 fold	–	–	–
CN[C@H](CC(C)C)C(=O)N[C@H]1C(=O)N[C@@H](CC(N)=O)C(=O)N[C@H]2C(=O)N[C@H]3C(=O)N[C@H](C(=O)N[C@H](C(=O)O)c4cc(O)cc(O)c4-c4cc3ccc4O)[C@H](O)c3ccc(c(Cl)c3)Oc3cc2cc(c3O[C@@H]2O[C@H](CO)[C@@H](O)[C@H](O)[C@H]2O[C@H]2C[C@](C)(N)[C@H](O)[C@H](C)O2)Oc2ccc(cc2Cl)[C@H]1O [vancomycin]	–	able to inhibit the growth	reduction in the size of drusenoid lesion	–
neomycin	–	most sensitive	–	significant ocular complications including ophthalmatrophia
